Measured values from patent US20040198663A1, “Method of treating cardiac ischemia by using erythropoietin” (priority 2003, published 2004).

What was measured:
Experiment in all cases: Western analysis of cytosolic and particulate fractions of erythropoietin-treated hearts
Set-up in all cases: species or system rabbit
JUN kinase = system: JUN kinase
Description: (§1) Western analysis. Hearts from infant rabbits were isolated and aerobically perfused with bicarbonate buffer for 30 minutes at constant pressure, then perfused with erythropoietin for 5 or 15 minutes. The free wall of the left ventricle was excised and immediately freeze-clamped between stainless steel tongs pre-cooled with liquid nitrogen. Frozen myocardial tissue samples were powdered in a pre-cooled stainless steel mortar and pestle.
(§2) The powdered tissue was then processed to obtain cytosolic and particulate fractions for Western analysis, as described in Raflee et al., Circulation 106:239-45 (2002). Powdered tissue was homogenized in sample buffer (50 mM Tris pH 7.5, 5 mM EDTA, 10 mM EGTA, 10 mM benzamidine, 10 μg/ml pepstatin A, 50 μg/ml PMSE, 10 μg/ml aprotinin, 10 μg/ml leupeptin, and 0.3% β-mercaptoenthanol) on ice for 50 strokes. Nuclei and cellular debris was removed by centrifugation (1000 g at. 4° C. for 15 min). The supernatant was transferred to a new cold 1.5 mL microcentrifuge tube. The cytosolic and particulate portions of total cellular proteins were separated by a 30-minute centrifugation at 45000 g. Protein concentrations were determined by the method of Bradford. Equal amounts of protein were analyzed by SDS-PAGE and Western blotting by using either isoform-specific antibodies for phospho-PKC detection or specific antibodies against phosphorylated and non-phosphorylated p38 MAPK, JNK, and p42/44 MAPK. The blots were developed by ECL. Densitometry was performed on each sample and analyzed with the use of NIH image software. Rafiee et al., Circulation 106:239-45 (2002).
(§3) Cytosolic and particulate fractions from erythropoietin-treated and untreated hearts were prepared. Protein content for PKCε, p38 MAP kinase, p42/44 MAP kinase and JUN kinase was determined by SDS-PAGE and Western blot analysis using monoclonal antibodies specific for PKCε, phosphorylated p38 MAP kinase (Thr180/Tyr182), p42/44 MAP kinase (Thr202/Tyr204), and JUN kinase (Thr183/Tyr185). Non-phosphorylated antibodies were used to ensure equal loading of proteins.

PKCε = settings: erythropoietin 1.0 U/ml
Description: as §1, §2, §3

p38 MAP kinase = system: p38 MAP kinase
Description: as §1, §2, §3

p42/44 MAP kinase = system: p42/44 MAP kinase
Description: as §1, §2, §3

[1] = erythropoietin 1.0 U/ml for 5 minutes
[2] = erythropoietin 1.0 U/ml for 15 minutes

## erythropoietin: Recombinant human erythropoietin, a glycoprotein hormone, obtained from Cell Science, Inc.
JUN kinase; erythropoietin 1.0 U/ml
  treatment time at which phosphorylation of JUN kinase was maximized: 5 min
JUN kinase; [1]
  phosphorylation of JUN kinase: phosphorylation of JUN kinase in the cytosolic fraction but not in the particulate fraction
JUN kinase; [2]
  phosphorylation of JUN kinase in the cytosolic fraction: declined
PKCε
  treatment time at which phosphorylation of PKCε was maximal: 15 min
PKCε; 5 or 15 minutes
  PKCε activation and translocation: activated and translocated from the cytosolic to the particulate fraction
p38 MAP kinase; erythropoietin 1.0 U/ml
  treatment time at which phosphorylation of p38 MAP kinase was maximized: 5 min
p38 MAP kinase; [1]
  phosphorylation of p38 MAP kinase: phosphorylation of p38 MAP kinase in the cytosolic fraction but not in the particulate fraction
p38 MAP kinase; [2]
  extent of phosphorylation of p38 MAP kinase: declined
p42/44 MAP kinase; erythropoietin 1.0 U/ml
  treatment time at which phosphorylation of p42/44 MAP kinase was maximal: 15 min
p42/44 MAP kinase; [1]
  phosphorylation of p42/44 MAP kinase: remarkable phosphorylation of p42/44 MAP kinase in the cytosolic fraction with minor phosphorylation in the particulate fraction
p42/44 MAP kinase; [2]
  phosphorylation of p42/44 MAP kinase: enhanced phosphorylation of p42/44 MAP kinase in the cytosolic fraction and in the particulate fraction
